# Tests used:
# IL13 = experiment: OVA model: IL13 ELISA in lung protein extracts; assay type: in vivo, BALB/c mice; settings: FIG. 3
# Protocol: In order to study modulation of airway inflammation, BALB/c mice of about 6 to about 8 weeks old are sensitized by intraperitoneal injection of about 10 μg ovalbumin (OVA) (Sigma Aldrich, Schnelldorf, Germany) emulsified in aluminum hydroxide (AlumInject; Perbio, Erembodegem, Belgium) on days 0 (DO) and 7 (D7). Mice are subsequently exposed to allergens by daily inhalation of an aerosol of OVA about 1%, for about 30 minutes, generated by ultrasonic nebulizer (Devilbiss 2000), from day 21 to day 25. Mice are subjected to about 50 μl intra-nasal instillations from day 18 to day 24 and are sacrificed on day 26, as previously reported by Cataldo et al.: Am. J. Pathol. 161 (2):491-498 (2002), which is incorporated herein in its entirety by reference. Placebo mice are intra-nasal injected with PBS. As stated above, the left lung is excised and frozen immediately at about −80° C. and then disrupted in liquid N2 by using a Mikro-Dismembrator (Braun Biotech International, Gmbh Melsungen, Germany) to form a homogenized powder. […] IL13 levels are measured in non-pooled lung protein samples by ELISA (duoset kit, R&D Systems, Abingdon, United Kingdom) following manufacturer's instructions. […]
# [1] = system: Cigarette smoke-exposed mice; experiment: Cigarette smoke exposure model: BALF neutrophils; assay type: in vivo, C57BL/6 mice; settings: budesonide alone about 500 μg/ml
# Protocol: BALF supernatant is collected for protein assessment while cells are used for differential cell counts. Differential cell counts based on morphologic criteria are carried out on cytocentrifuged preparations after staining with haematoxylin-eosin (Diff-Quick, Dade, Belgium). Cells are recovered by gentle manual aspiration. After centrifugation of bronchoalveolar fluid (BALF) (about 1200 rpm for about 10 minutes, at about 4° C.), the supernatant is frozen at about −80° C. for protein assessment and the cell pellet is re-suspended in about 1 ml PBS-EDTA about 0.05 mM. The differential cell counts are performed on cytocentrifuged preparations (Cytospin) after staining with Diff-Quick (Dade, Belgium).
# C57BL/6 mice are exposed to 10 cigarettes 5 days per week during 6 weeks using the Inexpose® system (Scireq, Montreal, Canada). Mice are treated by an about 50 μl intra-nasal injection 5 days per week during 6 weeks. Mice are sacrificed on day 43. Placebo mices also called sham exposed mices are injected with PBS.
# Bronchoalveolar lavage fluid (BALF) analysis is the same as previously described in Example 3 (model of airway obstruction and inflammation).
# Results of inflammatory cells in bronchoalveolar lavage fluid number were expressed as mean +/− SEM and the comparison between the groups is performed using Mann-Whitney test. Tests are performed using GraphPad Prism 5. […]
# [2] = Stability of betamethasone dipropionate under autoclave; assay type: physicochemical
SMILES,IL13 levels in lung tissue after allergen exposure (IL13; budesonide about 100 μg/ml compared to budesonide about 100 μg/ml—cyclodextrin about 10 mM),IL13 levels in lung tissue after allergen exposure (IL13; budesonide about 250 μg/ml compared to complex budesonide about 250 μg/ml—cyclodextrin about 10 mM),inflammation level in BALF of treated mice [1],"Percentage of neutrophils (+/−SEM) in BALF, Neutrophils (%) ([1]; about 50 μl intra-nasal 5 days per week during 6 weeks)",stability under autoclave [2]
"CCCC1O[C@@H]2C[C@H]3[C@@H]4CCC5=CC(=O)C=C[C@]5(C)[C@H]4[C@@H](O)C[C@]3(C)[C@]2(C(=O)CO)O1 (stereo partly drawn) [budesonide, 16,17-(butylidenebis(oxy))-11,21-dihydroxy-, (11-β3,16-a)-pregna-1,4-diene-3,20-dione]",higher IL13 levels,higher levels of IL13,significantly not efficient enough,about 9.64%,–
CCC(=O)OCC(=O)[C@@]1(OC(=O)CC)[C@@H](C)C[C@H]2[C@@H]3CCC4=CC(=O)C=C[C@]4(C)[C@@]3(F)[C@@H](O)C[C@@]21C [Betamethasone Dipropionate],–,–,–,–,degrades under autoclave

# — patent publication US9993487B2 (Universite de Liege, priority 2014, dated 2018)
